Results published in ChEMBL document CHEMBL1201862, “PubChem BioAssay data set” (2004).
Active and inactive are the calls of the source.

Columns and labels:
[1] = molecular target: Beta-2 adrenergic receptor (Homo sapiens, UniProt P07550); assay: beta2AR agonists driving receptor internalization, dose response, cell-based, FAP fluorogen, flow cytometry, cherry pick 1 (AID 588763); type: functional
[2] = molecular target: T1, Apoptotic protease-activating factor 1 (Homo sapiens, UniProt O14727); type: functional
T1 sequence (O14727 whole entry): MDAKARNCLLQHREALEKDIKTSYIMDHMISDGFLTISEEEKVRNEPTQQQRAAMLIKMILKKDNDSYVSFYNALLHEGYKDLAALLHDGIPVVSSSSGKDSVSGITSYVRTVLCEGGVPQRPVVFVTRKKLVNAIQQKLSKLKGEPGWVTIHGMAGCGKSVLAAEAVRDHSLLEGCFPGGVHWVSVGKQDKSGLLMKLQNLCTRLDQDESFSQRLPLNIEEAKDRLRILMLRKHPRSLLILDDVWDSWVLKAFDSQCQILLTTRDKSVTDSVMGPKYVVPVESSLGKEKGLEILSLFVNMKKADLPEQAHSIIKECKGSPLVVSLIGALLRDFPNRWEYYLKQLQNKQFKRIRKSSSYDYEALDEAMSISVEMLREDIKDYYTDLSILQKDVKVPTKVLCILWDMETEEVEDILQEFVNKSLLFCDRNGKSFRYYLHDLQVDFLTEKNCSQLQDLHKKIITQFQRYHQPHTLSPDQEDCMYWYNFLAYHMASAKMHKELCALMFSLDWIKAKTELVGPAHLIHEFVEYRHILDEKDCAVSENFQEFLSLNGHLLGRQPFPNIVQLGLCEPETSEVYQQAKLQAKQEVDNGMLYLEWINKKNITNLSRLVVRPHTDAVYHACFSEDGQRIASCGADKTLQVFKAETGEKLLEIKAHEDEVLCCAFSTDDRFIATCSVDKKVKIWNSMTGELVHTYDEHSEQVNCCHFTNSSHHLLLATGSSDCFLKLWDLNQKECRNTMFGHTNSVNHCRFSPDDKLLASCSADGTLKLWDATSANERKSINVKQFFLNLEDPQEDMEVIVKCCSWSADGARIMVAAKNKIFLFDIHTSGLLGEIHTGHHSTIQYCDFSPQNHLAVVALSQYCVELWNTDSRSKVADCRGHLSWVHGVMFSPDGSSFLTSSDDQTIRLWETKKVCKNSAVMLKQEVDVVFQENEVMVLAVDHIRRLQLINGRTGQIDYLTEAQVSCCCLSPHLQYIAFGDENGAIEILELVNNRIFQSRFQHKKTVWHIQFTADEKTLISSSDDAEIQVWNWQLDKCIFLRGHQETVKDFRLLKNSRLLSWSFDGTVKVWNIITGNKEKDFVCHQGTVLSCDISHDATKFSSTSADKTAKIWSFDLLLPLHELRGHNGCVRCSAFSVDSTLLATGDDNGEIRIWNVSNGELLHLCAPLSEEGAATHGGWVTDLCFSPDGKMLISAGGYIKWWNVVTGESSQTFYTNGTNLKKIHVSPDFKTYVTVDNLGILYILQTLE

[3] = molecular target: Tyrosine-protein phosphatase non-receptor type 11 (Homo sapiens, UniProt Q06124); assay: SHP2 phosphatase inhibition, dose response, selectivity assay for STEP inhibitor project, biochemical (AID 602367); type: functional; conditions: read-out: IC50_Mean
Chain of Tyrosine-protein phosphatase non-receptor type 11 (Q06124 whole entry): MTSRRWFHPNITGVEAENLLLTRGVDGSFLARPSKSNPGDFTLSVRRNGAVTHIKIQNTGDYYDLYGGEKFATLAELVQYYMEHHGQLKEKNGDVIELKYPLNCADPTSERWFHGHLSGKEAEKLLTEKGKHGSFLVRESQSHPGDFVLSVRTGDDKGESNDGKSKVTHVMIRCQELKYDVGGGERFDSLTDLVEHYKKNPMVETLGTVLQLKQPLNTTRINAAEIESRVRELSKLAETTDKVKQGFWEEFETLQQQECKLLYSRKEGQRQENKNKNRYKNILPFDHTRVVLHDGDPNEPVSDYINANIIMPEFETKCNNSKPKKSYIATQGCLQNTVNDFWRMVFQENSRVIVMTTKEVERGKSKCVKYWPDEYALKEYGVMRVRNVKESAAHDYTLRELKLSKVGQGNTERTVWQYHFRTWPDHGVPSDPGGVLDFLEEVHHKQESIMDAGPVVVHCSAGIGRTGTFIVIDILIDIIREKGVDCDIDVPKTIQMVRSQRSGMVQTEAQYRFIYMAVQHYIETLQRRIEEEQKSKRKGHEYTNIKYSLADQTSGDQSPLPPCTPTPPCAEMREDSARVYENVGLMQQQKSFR

[4] = molecular target: Tyrosine-protein phosphatase non-receptor type 5 (Homo sapiens, UniProt P54829); assay: STEP phosphatase inhibitors, confirmation, biochemical, fluorescence intensity, uHTS hits (AID 602372); type: functional; conditions: read-out: IC50_Mean
Chain of Tyrosine-protein phosphatase non-receptor type 5 (P54829 whole entry): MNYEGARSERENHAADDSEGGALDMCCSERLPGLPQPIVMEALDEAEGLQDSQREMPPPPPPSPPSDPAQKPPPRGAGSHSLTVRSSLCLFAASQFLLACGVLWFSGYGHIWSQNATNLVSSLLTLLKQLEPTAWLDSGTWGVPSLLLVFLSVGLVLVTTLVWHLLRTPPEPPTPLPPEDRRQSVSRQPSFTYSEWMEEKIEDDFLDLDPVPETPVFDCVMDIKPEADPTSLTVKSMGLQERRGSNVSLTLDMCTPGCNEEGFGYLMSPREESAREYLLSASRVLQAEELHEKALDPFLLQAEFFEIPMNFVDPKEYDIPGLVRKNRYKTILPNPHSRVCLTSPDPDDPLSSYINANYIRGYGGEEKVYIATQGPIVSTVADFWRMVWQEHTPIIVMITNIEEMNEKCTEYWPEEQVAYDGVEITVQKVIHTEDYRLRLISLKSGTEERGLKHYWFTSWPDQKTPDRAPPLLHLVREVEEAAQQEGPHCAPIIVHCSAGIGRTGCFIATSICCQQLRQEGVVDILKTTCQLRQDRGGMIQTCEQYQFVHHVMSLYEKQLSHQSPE

[5] = molecular target: Dual specificity protein phosphatase 3 (Homo sapiens, UniProt P51452); assay: VHR phosphatase inhibition, dose response, selectivity assay for STEP inhibitor project, biochemical (AID 602374); type: functional; conditions: read-out: IC50_Mean
Chain of Dual specificity protein phosphatase 3 (P51452 whole entry): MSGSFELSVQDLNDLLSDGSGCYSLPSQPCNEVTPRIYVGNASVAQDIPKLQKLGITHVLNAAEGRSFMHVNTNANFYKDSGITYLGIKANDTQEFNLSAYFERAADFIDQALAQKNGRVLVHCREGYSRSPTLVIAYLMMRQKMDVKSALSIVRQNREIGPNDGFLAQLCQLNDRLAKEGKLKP

HEK293 [6] = assay: HEK cell cytotoxicity by LDH release, dose response, cytotoxicity control for IDE activator project, fluorescence, HEK cells (AID 588440); type: functional, cell-based; conditions: Homo sapiens;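 note: cytotoxicity by LDH release measuring loss of membrane integrity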
Insulin-degrading enzyme [7] = molecular target: T2, Insulin-degrading enzyme (Homo sapiens, UniProt P14735); assay: activators of recombinant IDE enzyme, dose response, counter-screen for IDE activator project, biochemical, fluorescence polarization (AID 588681)
T2 sequence (P14735 whole entry): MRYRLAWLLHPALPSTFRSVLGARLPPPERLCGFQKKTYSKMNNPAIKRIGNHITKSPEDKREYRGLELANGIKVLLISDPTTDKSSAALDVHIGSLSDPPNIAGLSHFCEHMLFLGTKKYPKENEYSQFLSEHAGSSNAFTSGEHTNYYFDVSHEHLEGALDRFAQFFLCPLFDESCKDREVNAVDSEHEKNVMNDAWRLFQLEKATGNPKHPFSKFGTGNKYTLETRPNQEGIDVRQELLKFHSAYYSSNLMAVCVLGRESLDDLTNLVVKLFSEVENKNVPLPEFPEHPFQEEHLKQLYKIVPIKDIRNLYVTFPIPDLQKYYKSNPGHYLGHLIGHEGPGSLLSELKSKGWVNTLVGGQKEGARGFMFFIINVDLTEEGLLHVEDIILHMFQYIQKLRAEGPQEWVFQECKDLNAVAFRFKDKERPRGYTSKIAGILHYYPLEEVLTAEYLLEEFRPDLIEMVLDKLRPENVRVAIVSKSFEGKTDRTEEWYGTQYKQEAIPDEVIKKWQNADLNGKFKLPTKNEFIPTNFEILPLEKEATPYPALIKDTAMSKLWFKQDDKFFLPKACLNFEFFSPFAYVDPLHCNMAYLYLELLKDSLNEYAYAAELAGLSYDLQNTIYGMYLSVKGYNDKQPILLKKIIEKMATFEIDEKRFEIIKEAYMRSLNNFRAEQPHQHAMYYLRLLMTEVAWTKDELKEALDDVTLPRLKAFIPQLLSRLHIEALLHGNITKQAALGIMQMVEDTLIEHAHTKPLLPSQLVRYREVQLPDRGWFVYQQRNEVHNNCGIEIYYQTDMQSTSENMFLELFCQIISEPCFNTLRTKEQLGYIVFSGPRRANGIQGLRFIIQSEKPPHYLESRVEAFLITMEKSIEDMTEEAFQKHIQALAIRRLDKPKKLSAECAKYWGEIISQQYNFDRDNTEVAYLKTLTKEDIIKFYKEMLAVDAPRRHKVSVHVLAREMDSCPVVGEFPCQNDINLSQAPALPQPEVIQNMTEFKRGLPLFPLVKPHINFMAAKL

HEK293 [8] = assay: optical interference in Abeta FP readout, dose response, artefact control for IDE activator project, biochemical, fluorescence polarization (AID 588442); type: functional, cell-based; conditions: Homo sapiens
Insulin-degrading enzyme [9] = molecular target: T2, Insulin-degrading enzyme; assay: activators of endogenous IDE in HEK cells, dose response, cell-based, fluorescence polarization (AID 588439); type: functional
[10] = molecular target: Photoreceptor-specific nuclear receptor (Homo sapiens, UniProt Q9Y5X4); type: functional, cell-based;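 note: CHO-S cells with Gal4-NCOR and VP16-NR2E3 two-hybrid luciferase reporter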
Chain of Photoreceptor-specific nuclear receptor (Q9Y5X4 whole entry, the tested form may be a part): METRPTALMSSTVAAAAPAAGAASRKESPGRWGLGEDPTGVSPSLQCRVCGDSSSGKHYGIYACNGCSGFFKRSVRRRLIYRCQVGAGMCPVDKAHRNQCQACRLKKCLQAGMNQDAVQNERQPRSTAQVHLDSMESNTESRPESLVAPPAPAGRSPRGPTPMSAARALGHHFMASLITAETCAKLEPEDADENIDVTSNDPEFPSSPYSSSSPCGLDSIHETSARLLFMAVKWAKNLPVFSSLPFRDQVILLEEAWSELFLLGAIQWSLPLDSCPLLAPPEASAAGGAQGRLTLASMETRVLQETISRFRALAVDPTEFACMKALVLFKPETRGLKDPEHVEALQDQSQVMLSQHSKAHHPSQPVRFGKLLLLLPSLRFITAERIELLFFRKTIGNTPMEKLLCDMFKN

[11] = molecular target: SWI/SNF-related matrix-associated actin-dependent regulator of chromatin subfamily A member 2 (Homo sapiens, UniProt P51531); assay: Luminescence-based cell-based high throughput dose response assay to identify activators of the function of SWI/SNF related, matrix associated, actin dependent regulator of chromatin, subfamily a, member 2 (SMARCA2, BRM).; type: functional
Chain of SWI/SNF-related matrix-associated actin-dependent regulator of chromatin subfamily A member 2 (P51531 whole entry): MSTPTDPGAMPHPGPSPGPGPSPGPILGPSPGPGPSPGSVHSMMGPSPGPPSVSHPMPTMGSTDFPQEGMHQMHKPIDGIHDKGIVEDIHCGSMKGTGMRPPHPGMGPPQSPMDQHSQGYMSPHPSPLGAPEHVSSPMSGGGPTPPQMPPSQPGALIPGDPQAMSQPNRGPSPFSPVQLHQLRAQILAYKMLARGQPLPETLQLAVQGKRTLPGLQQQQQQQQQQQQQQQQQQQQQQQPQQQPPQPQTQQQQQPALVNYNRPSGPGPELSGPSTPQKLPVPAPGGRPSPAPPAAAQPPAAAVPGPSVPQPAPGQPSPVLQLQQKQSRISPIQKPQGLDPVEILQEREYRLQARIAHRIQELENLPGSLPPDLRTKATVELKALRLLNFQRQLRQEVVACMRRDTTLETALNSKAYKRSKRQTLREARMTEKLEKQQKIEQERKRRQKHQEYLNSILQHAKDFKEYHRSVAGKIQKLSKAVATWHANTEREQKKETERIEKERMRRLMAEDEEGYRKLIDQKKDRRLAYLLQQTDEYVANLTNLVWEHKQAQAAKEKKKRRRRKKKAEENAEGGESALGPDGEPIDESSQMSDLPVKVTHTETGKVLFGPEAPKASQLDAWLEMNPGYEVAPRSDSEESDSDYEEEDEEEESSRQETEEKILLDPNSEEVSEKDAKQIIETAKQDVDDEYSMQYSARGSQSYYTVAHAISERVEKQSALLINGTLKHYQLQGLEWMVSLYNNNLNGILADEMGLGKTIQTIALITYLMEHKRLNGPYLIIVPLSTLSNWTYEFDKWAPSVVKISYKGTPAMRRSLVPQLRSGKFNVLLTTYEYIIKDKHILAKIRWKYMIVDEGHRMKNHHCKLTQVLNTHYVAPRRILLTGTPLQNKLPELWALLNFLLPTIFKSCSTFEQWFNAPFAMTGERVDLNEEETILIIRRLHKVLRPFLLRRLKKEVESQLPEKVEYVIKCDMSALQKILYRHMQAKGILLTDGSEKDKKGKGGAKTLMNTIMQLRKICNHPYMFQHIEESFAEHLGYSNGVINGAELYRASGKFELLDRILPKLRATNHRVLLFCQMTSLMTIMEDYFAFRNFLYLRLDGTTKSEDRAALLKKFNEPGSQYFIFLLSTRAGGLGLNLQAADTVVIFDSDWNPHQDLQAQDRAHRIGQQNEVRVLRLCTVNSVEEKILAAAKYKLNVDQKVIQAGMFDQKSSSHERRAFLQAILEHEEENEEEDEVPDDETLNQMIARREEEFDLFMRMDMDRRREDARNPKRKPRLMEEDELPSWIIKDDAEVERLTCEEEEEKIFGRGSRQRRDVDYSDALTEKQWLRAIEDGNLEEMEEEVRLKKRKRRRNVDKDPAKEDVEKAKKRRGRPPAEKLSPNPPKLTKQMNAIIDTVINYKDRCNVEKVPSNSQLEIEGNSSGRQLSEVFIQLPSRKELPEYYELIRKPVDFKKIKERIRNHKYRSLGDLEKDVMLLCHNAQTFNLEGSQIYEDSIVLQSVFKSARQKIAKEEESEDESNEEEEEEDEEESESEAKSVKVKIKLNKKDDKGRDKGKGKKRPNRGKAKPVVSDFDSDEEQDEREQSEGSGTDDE

[12] = Counterscreen for activators of the function of SWI/SNF related, matrix associated, actin dependent regulator of chromatin, subfamily a, member 2 (SMARCA2, BRM): Luminescence-based cell-based high throughput dose response assay to identify non-selective compounds using the VP16 reporter assay.; type: functional
[13] = molecular target: T3, Carboxy-terminal domain RNA polymerase II polypeptide A small phosphatase 1 (Homo sapiens, UniProt Q9GZU7); assay: inhibitors of CTDSP1, concentration-response testing, biochemical assay, absorbance-based, actives from ultra-high-throughput screening (AID 540297); type: functional
T3 sequence (Q9GZU7 whole entry): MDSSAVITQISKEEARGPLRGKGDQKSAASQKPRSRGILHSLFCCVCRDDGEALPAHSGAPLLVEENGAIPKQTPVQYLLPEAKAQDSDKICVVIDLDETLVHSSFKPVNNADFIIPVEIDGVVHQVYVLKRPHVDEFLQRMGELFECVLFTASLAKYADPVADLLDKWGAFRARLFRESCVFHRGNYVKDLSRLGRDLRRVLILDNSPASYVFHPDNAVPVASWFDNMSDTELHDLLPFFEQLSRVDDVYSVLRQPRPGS

Caspase-6 = molecular target: T4, Caspase-6 (Homo sapiens, UniProt P55212); assay: human caspase-6 inhibitors, dose response, biochemical, VEID-R110 fluorescence, cherry-pick (AID 720632)
T4 sequence (P55212 whole entry): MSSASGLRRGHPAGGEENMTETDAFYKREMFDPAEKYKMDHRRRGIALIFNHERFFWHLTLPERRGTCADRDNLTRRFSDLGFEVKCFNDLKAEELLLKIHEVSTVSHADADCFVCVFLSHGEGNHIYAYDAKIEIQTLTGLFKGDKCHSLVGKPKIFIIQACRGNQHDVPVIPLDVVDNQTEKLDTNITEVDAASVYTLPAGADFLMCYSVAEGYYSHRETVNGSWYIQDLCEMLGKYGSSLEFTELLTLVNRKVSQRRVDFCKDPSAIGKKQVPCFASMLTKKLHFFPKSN

[14] = HEp-2 cell cytotoxicity, dose response, cytotoxicity control for RSV inhibitor project, HTS (AID 2410); type: functional; conditions: human respiratory syncytial virus
HEK293 [15] = assay: cells; type: functional, cell-based; conditions: Homo sapiens
[16] = molecular target: T5, Nuclear receptor subfamily 0 group B member 1 (Homo sapiens, UniProt P51843); assay: Luminescence-based cell-based high throughput dose response assay for inhibitors of the orphan nuclear receptor subfamily 0, group B, member 1 (DAX1; NR0B1). [Related pubchem assays (depositor defined):AID504766, AID504790]; type: functional
T5 sequence (P51843 whole entry): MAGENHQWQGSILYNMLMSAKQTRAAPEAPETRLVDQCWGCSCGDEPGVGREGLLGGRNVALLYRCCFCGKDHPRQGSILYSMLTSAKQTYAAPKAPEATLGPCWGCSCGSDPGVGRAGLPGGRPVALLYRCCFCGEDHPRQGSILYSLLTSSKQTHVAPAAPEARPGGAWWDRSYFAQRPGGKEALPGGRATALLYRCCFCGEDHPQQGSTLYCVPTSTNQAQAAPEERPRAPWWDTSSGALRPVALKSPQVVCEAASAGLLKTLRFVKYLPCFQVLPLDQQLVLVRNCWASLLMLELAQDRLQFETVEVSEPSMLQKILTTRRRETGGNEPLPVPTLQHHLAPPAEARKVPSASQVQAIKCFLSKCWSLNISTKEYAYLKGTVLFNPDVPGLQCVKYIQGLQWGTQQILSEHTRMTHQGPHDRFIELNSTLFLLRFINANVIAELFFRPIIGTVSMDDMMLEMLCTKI

[17] = molecular target: Adenosylmethionine-8-amino-7-oxononanoate aminotransferase (Mycobacterium tuberculosis, UniProt P9WQ81); assay: Mycobacterium tuberculosis BioA enzyme inhibitor Measured in Biochemical System Using Plate Reader - 2163-02_Inhibitor_Dose_CherryPick_Activity.; type: functional, Mycobacterium tuberculosis UT205
Chain of Adenosylmethionine-8-amino-7-oxononanoate aminotransferase (P9WQ81 whole entry): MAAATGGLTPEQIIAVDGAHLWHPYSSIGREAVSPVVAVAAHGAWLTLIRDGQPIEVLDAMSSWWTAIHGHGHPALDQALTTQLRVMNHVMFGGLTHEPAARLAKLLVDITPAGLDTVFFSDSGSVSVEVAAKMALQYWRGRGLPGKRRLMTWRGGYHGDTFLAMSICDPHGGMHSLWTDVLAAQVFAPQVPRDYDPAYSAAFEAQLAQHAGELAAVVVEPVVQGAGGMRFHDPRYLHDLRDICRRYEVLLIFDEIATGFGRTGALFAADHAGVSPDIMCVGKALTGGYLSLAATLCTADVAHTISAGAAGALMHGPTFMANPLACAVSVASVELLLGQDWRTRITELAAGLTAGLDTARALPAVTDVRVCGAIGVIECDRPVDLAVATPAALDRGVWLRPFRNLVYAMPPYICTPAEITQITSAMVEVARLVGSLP

Chain of Beta-2 adrenergic receptor (P07550 whole entry): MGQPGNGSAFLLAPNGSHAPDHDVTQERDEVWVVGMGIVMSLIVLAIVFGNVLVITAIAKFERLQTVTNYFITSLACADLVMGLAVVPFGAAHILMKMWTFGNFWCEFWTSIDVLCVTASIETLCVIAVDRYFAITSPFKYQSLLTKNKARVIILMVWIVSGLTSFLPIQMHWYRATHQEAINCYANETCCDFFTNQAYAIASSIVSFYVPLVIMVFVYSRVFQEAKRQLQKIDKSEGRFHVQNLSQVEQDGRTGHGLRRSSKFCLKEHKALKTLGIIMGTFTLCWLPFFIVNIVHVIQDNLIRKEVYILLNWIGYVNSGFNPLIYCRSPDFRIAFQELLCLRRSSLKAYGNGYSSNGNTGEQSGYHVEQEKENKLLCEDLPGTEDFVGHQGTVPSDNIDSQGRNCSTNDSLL

## Cc1c(C(=O)N2CCc3ccccc3C2)oc2ccc(S(=O)(=O)N3CCCCCC3)cc12
[1]
  EC50: 1.46 µM (active)

## CC(=O)c1ccc2c(c1)c(C#N)c1ccccc1[n+]2[O-]
[2]
  IC50: 88.8 µM (active)

## Cc1ccc(N=C(S)N(CCN(C)C)Cc2cccs2)c(C)c1
[3]
  IC50: 3.37 µM (active)
[4]
  IC50: 24.6 µM (inactive)
[5]
  IC50: 1.36 µM (active)

## CC(OC(=O)c1c2c(nc3ccccc13)/C(=C\c1ccc3c(c1)OCO3)CCC2)C(=O)Nc1ccc(S(N)(=O)=O)cc1 (stereo not given)
HEK293 [6]
  IC50: > 89.2 µM (inactive)
Insulin-degrading enzyme [7]
  EC50: > 54.7 µM (inactive)
HEK293 [8]
  EC50: > 54.7 µM (inactive)
Insulin-degrading enzyme [9]
  EC50: > 54.7 µM (inactive)

## O=C(NC1(Cc2ccc(O)cc2)CCCCC1)c1ccccc1
[1]
  EC50: 7.42 µM (active)

## Cc1cccc(C(=O)N[C@H](C(=O)Nc2ncc(C)s2)C(C)C)c1
[10]
  IC50: 0.0592 µM (active)
[11]
  EC50: > 91.1 µM (inactive)
[12]
  EC50: > 91.1 µM (inactive)

## O=S(=O)(Nc1ccccc1)c1cccc2nsnc12
[13]
  IC50: 6.86 µM (active)
[3]
  IC50: 3.9 µM (active)
[4]
  IC50: 35.1 µM (inactive)
[5]
  IC50: 2.91 µM (active)
Caspase-6
  AC50: 8.86 µM (active)

## Cn1c(CN2CCOCC2)nnc1SCC(=O)Nc1ccc([N+](=O)[O-])cc1O
HEK293 [6]
  IC50: > 89.2 µM (inactive)
Insulin-degrading enzyme [7]
  EC50: > 54.7 µM (inactive)
HEK293 [8]
  EC50: > 54.7 µM (inactive)
Insulin-degrading enzyme [9]
  EC50: > 54.7 µM (inactive)

## N#C/C(=C/c1ccc(-c2cc([N+](=O)[O-])ccc2Cl)o1)C(N)=O
[14]
  CC50: 16.6 µM (active)
HEK293 [15]
  IC50: > 67.6 µM (inactive)
[16]
  IC50: > 67.6 µM (inactive)

## Cc1ccc(S(=O)(=O)OCCC2=CC(=O)CCN2Cc2ccccc2)cc1
HEK293 [6]
  IC50: > 89.1 µM (inactive)
Insulin-degrading enzyme [7]
  EC50: > 54.7 µM (inactive)
HEK293 [8]
  EC50: > 55.9 µM (inactive)
Insulin-degrading enzyme [9]
  EC50: > 54.7 µM (inactive)

## CCCCN(C)C(=O)Cn1nc(Cc2ccncc2)c2ccccc2c1=O
HEK293 [15]
  IC50: > 67.5 µM (inactive)
[16]
  IC50: > 67.5 µM (inactive)

## O=C(C1CC1)N1CC[C@@H]2[C@H]1c1cc(Br)ccc1N[C@@H]2CO
[17]
  AC50: 7.01 µM (active)

## CN1c2ccc(-c3cccc(F)c3)cc2[C@H]2[C@H](CCN2C(=O)c2ccncc2)[C@@H]1CO
[17]
  AC50: 7.24 µM (active)

## Cc1[nH]c2ccccc2c1/C=N/NC(=O)c1cccc(F)c1
HEK293 [15]
  IC50: > 67.5 µM (inactive)
[16]
  IC50: > 67.5 µM (inactive)
